Reference: patent US6620838B1, “Benzopyrazone compounds, compositions thereof, and methods of treatment therewith” (Signal Pharmaceuticals, Inc., priority 2002, dated 2003)

Experiments:
Type in all cases: cell-based
[1] = system: BG-1 ovarian carcinoma cells; test: Inhibition of BG-1 ovarian carcinoma cell proliferation; details: 17β-estradiol (0.1 nM)-dependent growth, 72 h, 3H-thymidine incorporation
Method: BG-1 cells serve as a useful in vitro model for the evaluation of the effects of antiestrogenic compounds on ovarian tumor growth (Greenberger, L. M. et. al., Clin. Cancer Res. 7:3166-3177, 2001). Benzopyranone compounds having an IC50<100 nM are particularly useful as anti-ovarian cancer agents in vivo.
BG-1 ovarian carcinoma cells were plated in 24-well dishes at a density of 5×10^3 cells/well in phenol-red free DMEM:F-12 (1:1) medium containing 1% antibiotics, 0.05% mercaptoethanol, 0.01% ethanolamine, 0.42 ng/mL sodium selenite and 5% charcoal-stripped FCS. Illustrative benzopyranone compounds (0.1-1000 nM in 0.2% DMSO) and 0.1 nM 17β-estradiol were added to the cultured BG-1 ovarian carcinoma cells and incubated for 72 h. Subsequently, ^3H-labeled thymidine was added and its incorporation into cells was measured following 4h incubation. The results are expressed as IC50 (nM) values (Table 2) which is the concentration of the benzopyranone compound necessary to inhibit the growth of BG-1 ovarian carcinoma cells by 50% relative to controls.

[2] = system: MCF-7 breast cancer cells; test: Inhibition of MCF-7 breast cancer cell proliferation; details: Homo sapiens, MCF7; 17β-estradiol (0.1 nM)-dependent growth, 72 h, 3H-thymidine incorporation
Method: MCF-7 cells represent an excellent in vitro system to study the effects of compounds on estrogen-dependent breast cancer growth. (May, F. E. B.; Westley, B. R. J. Biol. Chem. 262:15894-15899, 1987). Benzopyranone compounds having an IC50<100 nM are particularly useful as anti-breast cancer agents in vivo.
MCF-7 breast carcinoma cells were plated in 24-well dishes at a density of 5×10^3 cells/well in phenol-red free DMEM:F-12 (1:1) medium containing 1% antibiotics, 0.05% mercaptoethanol, 0.01% ethanolamine, 0.42 ng/mL sodium selenite and 5% charcoal-stripped FCS.
Illustrative benzopyranone compounds (0.1-1000 nM in 0.2% DMSO) and 0.1 nM 17β-estradiol were added to the cultured MCF-7 breast cancer cells for 72 h. Subsequently, ^3H-labeled thymidine was added and its incorporation into cells was measured following 4 h incubation. The results are expressed as IC50 (nM) values (Table 2) which is the concentration of the benzopyranone compound necessary to inhibit the growth of MCF-7 breast cancer cells by 50% relative to controls.

[3] = system: IL-6 release from human U-2 OS osteosarcoma cells stably transfected with human ER-α or ER-β; test: Inhibition of IL-6 release; details: U2OS, U-2 OS cells with ER-α or ER-β (table does not say which), stimulated with 2.5 ng/ml TNFα and 1 ng/ml IL-1β, IL-6 ELISA after 24 h
Method: Illustrative benzopyranone compounds were tested for their ability to inhibit IL-6 release from human U-2 OS osteosarcoma cells stably transfected with human ER-α or ER-β. (Stein, B.; Yang, M. X. Mol. Cell. Biol 15: 4971-4979, 1995; Poli, V. et. al., EMBO J. 13:1189-1196, 1994). […] Benzopyranone compounds having an IC50<100 nM are particularly useful as bone resorption inhibitors in vivo. Accordingly, the compounds of this assay, illustrative benzopyranone compounds, are particularly useful for the treatment of osteoporosis, Paget's disease and metastatic bone cancer. These compounds are also useful as anti-cancer agents as elevated IL-6 levels are responsible for certain cancers such as multiple myeloma, prostate cancer, ovarian cancer, renal carcinoma and cervical carcinoma.
Human U-2 OS osteosarcoma cells (ATCC) were stably transfected with expression vectors for human full-length ER-α or ER-β, respectively, using standard molecular biology techniques. Stable subclones were generated that expressed high levels of ER-α or ER-β mRNA. The expression of ER-α and ER-β was confirmed using RNase protection analysis.
Cells were plated into 96-well plates at a density of 80,000 cells per well in phenol red-free media with charcoal-stripped fetal calf serum. Twenty four hours later, cells were either treated with vehicle (0.2% DMSO) or test compound ([…] in 0.2% DMSO). Thirty minutes later cells were stimulated with 2.5 ng/ml TNFα and 1 ng/ml IL-1β. Twenty-four hours later the media supernatant was analyzed for cytokine production (IL-6) using commercially available ELISA kits following the manufacturer's instructions. Cytokine production in the presence of vehicle (0.2% DMSO) was set to 100%. The results are expressed as IC50 (nM) values (Table 2) which is the concentration of the benzopyranone compound necessary to inhibit the production of IL-6 50% relative to the amount of IL-6 produced in the presence of vehicle.

Structure (SMILES) | IC50 [1] [nM] | IC50 [2] [nM] | IC50 [3] [nM]
O=c1oc2cc(O)ccc2c(Cc2ccc(OCCN3CCCC3)cc2)c1-c1ccc(C(F)(F)F)cc1C(F)(F)F | 6.6 | 19 | 0.41
O=c1oc2cc(O)ccc2c(Cc2ccc(OCCN3CCCC3)cc2)c1-c1ccc(C(F)(F)F)cc1Cl | 3.4 | 5.5 | 0.4
O=c1oc2cc(O)ccc2c(Cc2ccc(OCCN3CCCC3)cc2)c1-c1ccc(Cl)cc1C(F)(F)F | 3.2 | 4.1 | 0.45
C=C/C(=C\C=C\OCCN1CCCC1)Cc1c(-c2ccc(C(F)(F)F)cc2)c(=O)oc2cc(O)ccc12 | 9.35 | 15.8 | 1.45
O=c1oc2cc(O)ccc2c(Cc2ccc(OCCN3CCCC3)cc2)c1-c1ccc(Cl)cc1Cl | 0.69 | 5.4 | 0.32
